These results are taken from ChEMBL document CHEMBL3414557, “Synthesis, molecular docking and Brugia malayi thymidylate kinase (BmTMK) enzyme inhibition study of novel derivatives of [6]-shogaol” (Eur J Med Chem, 2015).

Molecules are shown by their SMILES. Active and inactive are the calls of the source. The rule behind the calls is not given here.

The term Ki denotes the dissociation constant of the complex between target and ligand, obtained from inhibition or displacement. A lower Ki goes with higher affinity.

Biological target in one assay: not listed separately
In words: (§1) Inhibition of Brugia malayi thymidylate kinase using dTMP substrate by spectrophotometric assay.
Regarding `CCCCCC(CC(=O)CCc1ccc(O)c(OC)c1)Nc1cc(C)ccn1` (centres undefined), the Ki is 21.6 µM. The same measure, in the same setting: the result for `CCCCCC(CC(=O)CCc1ccc(O)c(OC)c1)n1cc(Br)c(=O)[nH]c1=O` (centres undefined) reads 8.32 µM; that for `CCCCCC(CC(=O)CCc1ccc(OC(=O)c2ccc(Cl)nc2)c(OC)c1)Nc1cc(C)ccn1` (centres undefined), 30.4 µM.

As to `CCCCCC(CC(=O)CCc1ccc(O)c(OC)c1)n1cnc2c(N)ncnc21` (centres undefined), the Ki was 9.01 µM. On the same count and under the same terms, the result for `CCCCCC(CC(=O)CCc1ccc(OS(C)(=O)=O)c(OC)c1)n1cc(C)c(=O)[nH]c1=O` (centres undefined) reads 66.1 µM; that for `CCCCC/C=C/C(=O)CCc1ccc(O)c(OC)c1` [SHOGAOL], 10.8 µM. Same read-out and setting: in the case of `CCCCCC(CC(=O)CCc1ccc(O)c(OC)c1)Nc1ncccc1C` (centres undefined) it was 11.1 µM; in that of `CCCCCC(CC(=O)CCc1ccc(OC(=O)c2ccco2)c(OC)c1)n1cc(C)c(=O)n(C(=O)c2ccco2)c1=O` (centres undefined), 20.3 µM; in that of `CCCCCC(CC(=O)CCc1ccc(O)c(OC)c1)Nc1ccc(C)cn1` (centres undefined), 40.6 µM. `CCCCCC(CC(=O)CCc1ccc(OC(=O)c2ccc(OC)cc2)c(OC)c1)n1cc(C)c(=O)n(C(=O)c2ccc(OC)cc2)c1=O` (centres undefined) registered a Ki of 20.1 µM. For `CCCCCC(CC(=O)CCc1ccc(OS(=O)(=O)c2ccc(C)cc2)c(OC)c1)n1cc(C)c(=O)[nH]c1=O` (centres undefined), the Ki came out at 45.7 µM. `CCCCCC(CC(=O)CCc1ccc(O)c(OC)c1)n1cc(C)c(=O)[nH]c1=O` (centres undefined) yielded an inhibition constant Ki of 6.57 µM. Still for that read-out and setting: the result for `CCCCCC(CC(=O)CCc1ccc(OC(=O)/C=C/c2ccc(F)cc2)c(OC)c1)n1cc(C)c(=O)[nH]c1=O` (centres undefined) reads 44.4 µM.

The test system of another assay is Brugia malayi. The assay is described as §1.
Regarding `CCCCCC(CC(=O)CCc1ccc(OC(=O)c2ccc(Cl)nc2)c(OC)c1)n1cc(C)c(=O)[nH]c1=O` (centres undefined), the inhibition entry is “inactive”.
